Where two headings read alike, the source gives them in different places.
Assays:
P493-6 (myc "on") cells = assay: Cell Proliferation Assay; type: cell-based; conditions: P493-6, 72 h, read-out: Cell prolif P493 72 h IC50, P493-6 cells, 72 h
Outline: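 Read-out: either Cell Titer Glo or Guava Viacount flow analysis after 72 h compound treatment of myc-on P493-6 cells (10,000/well, RPMI with 10% FBS) at 37 °C. DMSO held at 0.5% final.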

[1] = target: T1, recombinant form of Glutaminase 1 (GAC) (Homo sapiens, UniProt O94925); assay: Recombinant Enzyme Assay - Time Dependence (60 min preincubation); type: biochemical
T1 sequence (O94925 137-598 isoform O94925-3 limits assumed): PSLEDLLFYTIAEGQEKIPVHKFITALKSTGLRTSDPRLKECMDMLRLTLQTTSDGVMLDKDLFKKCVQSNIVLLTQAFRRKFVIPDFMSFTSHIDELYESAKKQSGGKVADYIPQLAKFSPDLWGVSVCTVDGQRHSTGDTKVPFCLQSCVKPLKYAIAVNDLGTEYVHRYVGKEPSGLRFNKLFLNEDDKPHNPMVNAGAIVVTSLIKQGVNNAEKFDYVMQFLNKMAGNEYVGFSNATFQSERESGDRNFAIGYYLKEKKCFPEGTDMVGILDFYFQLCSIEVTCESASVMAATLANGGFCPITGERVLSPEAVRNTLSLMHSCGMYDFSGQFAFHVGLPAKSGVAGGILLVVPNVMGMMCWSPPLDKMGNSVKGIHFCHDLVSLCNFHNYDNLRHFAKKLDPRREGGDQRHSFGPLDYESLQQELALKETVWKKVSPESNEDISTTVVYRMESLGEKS
Outline: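 Enzyme and compound preincubated 60 min at 20° C; reaction started with substrate buffer (50 mM Tris-HCl pH 8.0, 150 mM K2HPO4, 1 mM DTT, 20 mM L-glutamine, 2 mM NAD^+). NADH formation followed at 340 nm in kinetic mode for 15 min at 20° C; slopes (mAU/min) compared with DMSO and control-compound wells.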

[2] = read-out: GAC Delta N2 IC50 60 min preinc

| IC50 [1] [nM] | Compound | IC50 (P493-6 (myc "on") cells) [nM] | IC50 [1, 2] [nM] |
| --- | --- | --- | --- |
|  | CC(C(=O)NCc1cccc(CC(=O)Nc2nnc(CCCCc3ccc(NC(=O)Cc4ccccc4)nn3)s2)c1)c1ccc(O)cc1 (stereo not shown) [Compound 576] | 13 | 3 |
|  | O=C(Cc1ccccc1)Nc1ccc(CCCCc2nnc(NC(=O)Cc3cccc(CNC(=O)C(O)C(F)(F)F)c3)s2)nn1 (stereo not shown) [Compound 577] | 34 | 4 |
|  | O=C(CC(O)C(F)(F)F)NCc1cccc(CC(=O)Nc2nnc(CCCCc3ccc(NC(=O)Cc4ccccc4)nn3)s2)c1 (stereo not shown) [Compound 578] | 22 | 4 |
|  | CC(O)(CC(=O)NCc1cccc(CC(=O)Nc2nnc(CCCCc3ccc(NC(=O)Cc4ccccc4)nn3)s2)c1)C(F)(F)F (stereo not shown) [Compound 579] | 9 | 4 |
|  | CC1(C)OCC(C)(C(=O)NCc2cccc(CC(=O)Nc3nnc(CCCCc4ccc(NC(=O)Cc5ccccc5)nn4)s3)c2)CO1 [Compound 580] | 13 | 5 |
|  | CC(CO)(CO)C(=O)NCc1cccc(CC(=O)Nc2nnc(CCCCc3ccc(NC(=O)Cc4ccccc4)nn3)s2)c1 [Compound 581] | 240 | 11 |
|  | CS(=O)(=O)CCCOc1cccc(CC(=O)Nc2nnc(CCCCc3ccc(NC(=O)Cc4ccccc4)nn3)s2)c1 [Compound 583] | 42 | 5 |
|  | CC(C(=O)Nc1nnc(CCCCc2ccc(NC(=O)Cc3ccccc3)nn2)s1)c1cccc(C(=O)c2ccccc2)c1 (stereo not shown) [Compound 587] | 57 | 7 |
|  | CCOC(=O)c1ccc(CC(=O)Nc2nnc(CCCCc3ccc(NC(=O)Cc4ccccc4)nn3)s2)cc1OCC [Compound 588] | 270 | 8 |
|  | CC(=O)NC(C)c1cccc(CC(=O)Nc2ccc(CCCCc3nnc(NC(=O)Cc4ccccc4)s3)nn2)c1 (stereo not shown) [Compound 590] | 87 | 7 |
|  | CCNC(=O)OC(C)c1cccc(CC(=O)Nc2nnc(CCCCc3ccc(NC(=O)Cc4ccccc4)nn3)s2)c1 (stereo not shown) [Compound 592] | 11 | 4 |
|  | CC(O)c1cccc(CC(=O)Nc2nnc(CCCCc3ccc(NC(=O)Cc4ccccc4)nn3)s2)c1 (stereo not shown) [Compound 593] | 33 | 5 |
|  | CCNC(=O)OC(C)c1cccc(CC(=O)Nc2ccc(CCCCc3nnc(NC(=O)C(C)c4ccccc4)s3)nn2)c1 (stereo not shown) [Compound 594] | 50 | 7 |
|  | CC(O)c1cccc(CC(=O)Nc2ccc(CCCCc3nnc(NC(=O)C(C)c4ccccc4)s3)nn2)c1 (stereo not shown) [Compound 595] | 59 | 7 |
|  | CCNC(=O)OC(C)c1cccc(CC(=O)Nc2ccc(CCCCc3nnc(NC(=O)Cc4cccc(OC(F)(F)F)c4)s3)nn2)c1 (stereo not shown) [Compound 596] | 330 | 15 |
|  | CC(O)c1cccc(CC(=O)Nc2ccc(CCCCc3nnc(NC(=O)Cc4cccc(OC(F)(F)F)c4)s3)nn2)c1 (stereo not shown) [Compound 597] | 17 | 5 |
|  | COC(=O)NC(C)c1cccc(CC(=O)Nc2ccc(CCCCc3nnc(NC(=O)C(C)c4ccccc4)s3)nn2)c1 (stereo not shown) [Compound 601] | 36 | 6 |
|  | CCOC(=O)NC(C)c1cccc(CC(=O)Nc2ccc(CCCCc3nnc(NC(=O)C(C)c4ccccc4)s3)nn2)c1 (stereo not shown) [Compound 602] | 36 | 6 |
|  | CC(C)(C)OC(=O)N1Cc2cccc(CC(=O)Nc3nnc(CCCCc4ccc(NC(=O)Cc5ccccc5)nn4)s3)c2C1 [Compound 608] | 37 | 7 |
|  | CCOC(=O)NCc1cccc(CC(=O)Nc2ccc(CCCCc3nnc(NC(=O)C(OC)c4ccccc4)s3)nn2)c1 (stereo not shown) [Compound 609] | 14 | 9 |

| IC50 [1] [nM] | Compound | IC50 (P493-6 (myc "on") cells) [nM] | IC50 [1, 2] [nM] |
| --- | --- | --- | --- |
|  | CC(C)(C)OC(=O)N1Cc2cccc(CC(=O)Nc3ccc(CCCCc4nnc(NC(=O)Cc5cccc(OC(F)(F)F)c5)s4)nn3)c2C1 [Compound 612] | 100 | 65 |
|  | COc1cccc(CC(=O)Nc2ccc(CCCCc3nnc(NC(=O)Cc4cccc(OC(F)(F)F)c4)s3)nn2)c1 [Compound 617] | 40 | 5 |
|  | O=C(Cc1cccc(Cl)c1)Nc1ccc(CCCCc2nnc(NC(=O)Cc3cccc(OC(F)(F)F)c3)s2)nn1 [Compound 618] | 35 | 8 |
|  | CC(C)C(=O)NC(C)c1cccc(CC(=O)Nc2ccc(CCCCc3nnc(NC(=O)Cc4ccccc4)s3)nn2)c1 (stereo not shown) [Compound 620] | 11 | 5 |
| 5 | CCC(=O)NC(C)c1cccc(CC(=O)Nc2ccc(CCCCc3nnc(NC(=O)Cc4ccccc4)s3)nn2)c1 (stereo not shown) [Compound 621] | 20 |  |
|  | CC(NC(=O)C(F)(F)F)c1cccc(CC(=O)Nc2ccc(CCCCc3nnc(NC(=O)Cc4ccccc4)s3)nn2)c1 (stereo not shown) [Compound 622] | 10 | 4 |
| 4 | CC(NC(=O)CC(F)(F)F)c1cccc(CC(=O)Nc2ccc(CCCCc3nnc(NC(=O)Cc4ccccc4)s3)nn2)c1 (stereo not shown) [Compound 624] | 9 |  |
| 4 | CC(C)CC(=O)NC(C)c1cccc(CC(=O)Nc2ccc(CCCCc3nnc(NC(=O)Cc4ccccc4)s3)nn2)c1 (stereo not shown) [Compound 625] | 6 |  |
| 4 | CC(NS(C)(=O)=O)c1cccc(CC(=O)Nc2ccc(CCCCc3nnc(NC(=O)Cc4ccccc4)s3)nn2)c1 (stereo not shown) [Compound 626] | 17 |  |
|  | CC(C)(C)OC(=O)NC(C)(C)c1cccc(CC(=O)Nc2nnc(CCCCc3ccc(NC(=O)Cc4ccccc4)nn3)s2)c1 [Compound 630] | 9 | 4 |
|  | CC(C)(C)OC(=O)NC(C)(C)c1cccc(CC(=O)Nc2ccc(CCCCc3nnc(NC(=O)Cc4ccccc4)s3)nn2)c1 [Compound 631] | 6 | 5 |
|  | CC(C)(N)c1cccc(CC(=O)Nc2ccc(CCCCc3nnc(NC(=O)Cc4ccccc4)s3)nn2)c1 [Compound 633] | 130 | 7 |
|  | CS(=O)(=O)Cc1cccc(CC(=O)Nc2ccc(CCCCc3nnc(NC(=O)Cc4ccccc4)s3)nn2)c1 [Compound 635] | 30 | 5 |
| 3 | CCCCS(=O)(=O)Cc1cccc(CC(=O)Nc2nnc(CCCCc3ccc(NC(=O)Cc4ccccc4)nn3)s2)c1 [Compound 644] | 13 |  |
|  | CCCCS(=O)(=O)Cc1cccc(CC(=O)Nc2ccc(CCCCc3nnc(NC(=O)Cc4ccccc4)s3)nn2)c1 [Compound 645] | 15 | 2 |
|  | CCN(CC)C(=O)COc1cccc(CC(=O)Nc2ccc(CCCCc3nnc(NC(=O)Cc4ccccc4)s3)nn2)c1 [Compound 646] | 37 | 7 |
|  | CC(C)CNC(=O)COc1cccc(CC(=O)Nc2ccc(CCCCc3nnc(NC(=O)Cc4ccccc4)s3)nn2)c1 [Compound 647] | 18 | 4 |
|  | O=C(Cc1cccc2c1CNC2)Nc1ccc(CCCCc2nnc(NC(=O)Cc3cccc(OC(F)(F)F)c3)s2)nn1 [Compound 649] | 34 | 4 |
|  | CC(N)c1cc(CC(=O)Nc2nnc(CCCCc3ccc(NC(=O)Cc4ccccc4)nn3)s2)ccc1F (stereo not shown) [Compound 655] | 350 | 19 |

| Compound | IC50 [1] [nM] | IC50 (P493-6 (myc "on") cells) [nM] | IC50 [1, 2] [nM] |
| --- | --- | --- | --- |
| CC(N)c1cccc(CC(=O)Nc2ccc(CCCCc3nnc(NC(=O)C(C)c4ccccc4)s3)nn2)c1 (stereo not shown) [Compound 619] | 13 | 150 |  |
| CC(C)(N)c1cccc(CC(=O)Nc2nnc(CCCCc3ccc(NC(=O)Cc4ccccc4)nn3)s2)c1 [Compound 632] | 10 | 200 |  |
